Measured values: patent US4361577A, “ω-Nor-cycloalkyl-13,14-dehydro-prostaglandins and process for their preparation” (Carlo Erba - S.p.A., priority 1974, dated 1982)

Tests used:
guinea pig ileum = guinea pig ileum test (spasmogenic activity); details: relative to PGF2α = 1 (conventional value); in vitro, 35° C., Tyrode solution
Excerpt: (§1) The same compound (13,14-dehydro-17-cyclohexyl-20,19,18-trinor-PGF2α) was compared with PGF2α and with the olefinic analogue 5c,13t-9α,11α,15S-trihydroxy-20,19,18-trinor-17-cyclohexyl-prosta-5,13-dienoic acid (17-cyclohexyl-20,19,18-trinor-PGF2α) in the following in vitro tests: guinea pig ileum test, rat uterus test, rat stomach fundus. The results are reported in the following Table, wherein to the activity of PGF2 the conventional value of 1 was given in all the tests. The three tests relate to the determination of the spasmogenic activity.
The guinea pig ileum test consisted of a 10 ml thermostatic bath held at 35° C., containing the ileum of a male guinea pig, under 0.5 g traction, carboxygenated in a Tyrode solution; this was left for 30 minutes to stabilize before the compounds were tested. The response was recorded using a isotonic frontal lever, long enough to amplify the response 4.5 times.

rat uterus [1] = test: rat uterus test (spasmogenic activity); details: for ratio Uterus/Ileum / ratio Uterus/Stomach Fundus: ratio of activities relative to PGF2α; for ratio Uterus/Ileum: rat uterus / guinea pig ileum; for ratio Uterus/Stomach Fundus: rat uterus / rat stomach fundus; for spasmogenic activity, Rat Uterus: relative to PGF2α = 1 (conventional value), in vitro, 29° C., oestrogenized rat uteri
Excerpt: as §1
The rat uterus test consisted of a 10 ml thermostatic bath held at 29° C., in which oestrogenized rat uteri under 0.5 g traction were carboxygenated in a Dejalon saline solution. The preparation was left to stabilize for 30 minutes before the compounds were tested. Response was measured using a isotonic frontal lever, long enough to amplify the response 4.5 times.

rat stomach fundus = rat stomach fundus test (spasmogenic activity); details: relative to PGF2α = 1 (conventional value); in vitro, male Sprague-Dawley rats
Excerpt: as §1
The rat stomach fundus test was performed in the following manner: male albino rats of the Sprague-Dawley strain weighing 200-250 g were utilized. The stomach fundus strip was prepared according to Vane (J. R. Vane, Brit. J. Pharmacol. 12, 344, (1957)). The strip was suspended in a 10 ml organ bath containing Tyrode solution gassed with a mixture of O2 and CO2 (95:5%). The contractions of the strip were recorded using a isotonic frontal lever as in the preceding tests.

pregnant rat = test: luteolytic activity in the pregnant rat at the 9th-10th day of pregnancy; assay type: in vivo; details: relative to PGF2α = 1 (conventional value)
Excerpt: The action selectivity of the 13,14-dehydro compounds on the miometrium and on the reproductive apparatus is also proven by the remarkable increase of the luteolytic activity in the pregnant rat at the 9th-10th day of pregnancy. In fact, if the conventional value of 1 is given to the luteolytic activity of PGF2α, the value of 30 is to be given to the luteolytic acitivity of 17-cyclohexyl-20,19,18-trinor-PGF2α, and the value of 200 to the luteolytic activity of 13,14-dehydro-17-cyclohexyl-20,19,18-trinor-PGF2α.

[2] = target: T1, 15-hydroxy-prostaglandin-dehydrogenase (Homo sapiens, UniProt P15428); test: inhibition of 15-hydroxy-prostaglandin-dehydrogenase drawn from human placenta, in vitro; assay type: biochemical
T1 construct: 15-hydroxy-prostaglandin-dehydrogenase drawn from human placenta; from tissue; host or cells: human placenta
T1 sequence (P15428 1-266): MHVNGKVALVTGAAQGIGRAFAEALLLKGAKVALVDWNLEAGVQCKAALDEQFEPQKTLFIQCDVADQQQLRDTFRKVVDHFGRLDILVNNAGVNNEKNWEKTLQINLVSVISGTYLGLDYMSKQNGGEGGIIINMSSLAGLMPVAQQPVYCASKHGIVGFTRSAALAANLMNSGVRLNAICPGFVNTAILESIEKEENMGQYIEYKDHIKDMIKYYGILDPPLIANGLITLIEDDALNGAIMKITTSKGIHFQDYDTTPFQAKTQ
Excerpt: The compounds of formula (I) furthermore inhibit the use of natural prostaglandins as substrate by the enzyme.

rat uterus [3] = test: antagonism of PGF2α on the rat uterus; details: tested against PGF2α

Ki ([2]; inhibition with respect to PGE2)	Ki ([2]; inhibition with respect to PGF2α)	kind of inhibition ([2]; with respect to PGE2)	kind of inhibition ([2]; with respect to PGF2α)	Structure (SMILES)	spasmogenic activity, Guinea Pig Ileum (guinea pig ileum)	ratio Uterus/Ileum (rat uterus [1])	ratio Uterus/Stomach Fundus (rat uterus [1])	spasmogenic activity, Rat Uterus (rat uterus [1])	spasmogenic activity, Rat Stomach Fundus (rat stomach fundus)	luteolytic activity (pregnant rat)	antagonism of PGF2α on the rat uterus (rat uterus [3])
				O=C(O)CCCC=CCC1C(O)CC(O)C1C=CC(O)CCC1CCCCC1 (stereo not drawn) [17-cyclohexyl-20,19,18-trinor-PGF2α, 5c,13t-9α,11α,15S-trihydroxy-20,19,18-trinor-17-cyclohexyl-prosta-5,13-dienoic acid]	0.60	5.4	1.7	3.23	1.86	30	
468 µM	152 µM	noncompetitive	partially competitive	O=C(O)CCCC=CCC1C(O)CC(O)C1C#CC(O)CCC1CCCCC1 (stereo not drawn) [5c-9α,11α,15S-trihydroxy-20,19,18-trinor-17-cyclohexyl-prost-5-en-13-ynoic acid]	0.17	91	8	15.7	1.96	200	able to antagonize PGF2α specifically and selectively
				CCCCC[C@H](O)/C=C/[C@@H]1[C@@H](C/C=C\CCCC(=O)O)[C@@H](O)C[C@H]1O [PGF2α]		1	1			1	
